Measured values: ChEMBL document CHEMBL1629711, “Synthesis and in vitro biological evaluation of new polyamine conjugates as potential anticancer drugs” (Eur J Med Chem, 2010)
Active and inactive are the calls of the source. The calls are words filed in the database; no cut-off is given here.

Assays:
A-375 [1] = experiment: Induction of apoptosis in human A375 cells assessed as morphological changes at IC50 concentration after 44 hrs using acridine orange and ethidium bromide staining by fluorescence microscopy; assay type: functional, cell-based
A-375 [2] = experiment: Induction of necrosis in human A375 cells assessed as morphological changes at IC50 concentration after 44 hrs using acridine orange and ethidium bromide staining by fluorescence microscopy; assay type: functional, cell-based
A-375 [3] = experiment: Cytotoxicity against human A375 cells after 44 hrs by MTT assay; assay type: functional, cell-based; conditions: for IC50: A-375, 44 h
A-375 [4] = experiment: Cytotoxicity against human A375 cells at 1 to 100 uM after 44 hrs by MTT assay; assay type: functional, cell-based
A-375 [5] = experiment: Induction of apoptosis in human A375 cells assessed as morphological changes at 50 uM after 44 hrs using acridine orange and ethidium bromide staining by fluorescence microscopy; assay type: functional
A-375 [6] = experiment: Cell cycle arrest in human A375 cells assessed as accumulation at hypodiploid subG1 phase at 20 uM after 24 hrs using propidium iodide staining by flow cytometry relative to control; assay type: functional
A-375 [7] = experiment: Cell cycle arrest in human A375 cells assessed as accumulation at S phase at 20 uM after 24 hrs using propidium iodide staining by flow cytometry relative to control; assay type: functional
A-375 [8] = experiment: Cell cycle arrest in human A375 cells assessed as accumulation at G0/G1 phase at 20 uM after 24 hrs using propidium iodide staining by flow cytometry relative to control; assay type: functional
A-375 [9] = experiment: Cell cycle arrest in human A375 cells assessed as accumulation at G2/M phase at 20 uM after 24 hrs using propidium iodide staining by flow cytometry relative to control; assay type: functional
A-375 [10] = experiment: Cell cycle arrest in human A375 cells assessed as accumulation at G2/M phase at 50 uM after 24 hrs using propidium iodide staining by flow cytometry relative to control; assay type: functional
A-375 [11] = experiment: Cell cycle arrest in human A375 cells assessed as accumulation at G0/G1 phase at 50 uM after 24 hrs using propidium iodide staining by flow cytometry relative to control; assay type: functional
A-375 [12] = experiment: Cell cycle arrest in human A375 cells assessed as accumulation at S phase at 50 uM after 24 hrs using propidium iodide staining by flow cytometry relative to control; assay type: functional
A-375 [13] = experiment: Cell cycle arrest in human A375 cells assessed as accumulation at hypodiploid subG1 phase at 50 uM after 24 hrs using propidium iodide staining by flow cytometry relative to control; assay type: functional

`Cc1ccc2nnc(C(=O)NCCCOCCCCOCCCNC(=O)c3nnc4ccc(C)cc4c3N)c(N)c2c1` was tested, and the Activity (A-375 [1]) was “inactive”, the Activity (A-375 [2]) was “inactive” and the inhibition (A-375 [3]) was “Dose-dependent effect”. For the same molecule, the IC50 (A-375 [3]) was 100 µM.

For `O=C1c2cccc([N+](=O)[O-])c2C(=O)N1CCCOCCCCOCCCN1C(=O)c2cccc([N+](=O)[O-])c2C1=O`, the Activity (A-375 [4]) was “inactive”.

With `O=C1c2cccc([N+](=O)[O-])c2C(=O)N1CCCN1CCN(CCCN2C(=O)c3cccc([N+](=O)[O-])c3C2=O)CC1` the Activity (A-375 [4]) was “inactive”.

With `CN(CCCNC(=O)c1cnc2ccccc2c1N)CCCNC(=O)c1cnc2ccccc2c1N` the Activity (A-375 [1]) was “inactive”, the Activity (A-375 [2]) was “inactive” and the inhibition (A-375 [3]) was “Dose-dependent effect”. It also gave an IC50 (A-375 [3]) of 87.9 µM.

In the case of `Nc1c(C(=O)NCCCN2CCN(CCCNC(=O)c3cnc4ccccc4c3N)CC2)cnc2ccccc12`, the Activity (A-375 [5]) is reported as 30%, the Activity (A-375 [6]) is reported as 4% and the Activity (A-375 [7]) is reported as 31%. The Activity (A-375 [1]) was “inactive”, the Activity (A-375 [8]) was 49% and the Activity (A-375 [2]) was “inactive”. The inhibition (A-375 [3]) was “Dose-dependent effect”, the IC50 (A-375 [3]) was 16.8 µM and the Activity (A-375 [9]) was 21%.

`Cc1ccc2nnc(C(=O)NCCCN3CCN(CCCNC(=O)c4nnc5ccc(C)cc5c4N)CC3)c(N)c2c1` showed an Activity (A-375 [5]) of 14%, an Activity (A-375 [6]) of 4% and an Activity (A-375 [7]) of 19%. For the same molecule, the Activity (A-375 [10]) was 46%, the Activity (A-375 [11]) was 32% and the Activity (A-375 [1]) was “inactive”. The Activity (A-375 [8]) was 35%, the Activity (A-375 [2]) was “inactive” and the Activity (A-375 [12]) was 22%. For the same molecule, the Activity (A-375 [13]) was 9%, the inhibition (A-375 [3]) was “Dose-dependent effect” and the IC50 (A-375 [3]) was 31.6 µM. The Activity (A-375 [9]) was 46%.

With `Nc1c(C(=O)NCCCOCCCCOCCCNC(=O)c2cnc3ccccc3c2N)cnc2ccccc12` the Activity (A-375 [5]) was 8%, the Activity (A-375 [6]) was 2% and the Activity (A-375 [7]) was 22%. The Activity (A-375 [10]) was 8%, the Activity (A-375 [11]) was 39% and the Activity (A-375 [1]) was “inactive”. For the same molecule, the Activity (A-375 [8]) was 58%, the Activity (A-375 [2]) was “inactive” and the Activity (A-375 [12]) was 53%. The Activity (A-375 [13]) was 3%, the inhibition (A-375 [3]) was “Dose-dependent effect” and the IC50 (A-375 [3]) was 15.5 µM. For the same molecule, the Activity (A-375 [9]) was 20%.

In the case of `O=C1c2ccccc2C(=O)N1CCCN1CCN(CCCN2C(=O)c3ccccc3C2=O)CC1`, the Activity (A-375 [4]) is reported as “inactive”.

With `CN(CCCN1C(=O)c2ccccc2C1=O)CCCN1C(=O)c2ccccc2C1=O` the Activity (A-375 [4]) was “inactive”.

`CN(CCCN1C(=O)c2cccc([N+](=O)[O-])c2C1=O)CCCN1C(=O)c2cccc([N+](=O)[O-])c2C1=O` was tested, and the Activity (A-375 [4]) was “inactive”.

With `Cc1ccc2nnc(C(=O)NCCCN(C)CCCNC(=O)c3nnc4ccc(C)cc4c3N)c(N)c2c1` the Activity (A-375 [1]) was “inactive”, the Activity (A-375 [2]) was “inactive” and the inhibition (A-375 [3]) was “Dose-dependent effect”. It also gave an IC50 (A-375 [3]) of 116 µM.

In the case of `O=C1c2ccccc2C(=O)N1CCCOCCCCOCCCN1C(=O)c2ccccc2C1=O`, the Activity (A-375 [4]) is reported as “inactive”.
